Molecules are shown by their SMILES. Like-named read-outs stand apart in the source and are kept apart here.

The test system of data set [1] is Nude-mouse-transplanted human tumor.
Data set [2] has the same test system. Description: Test 2: antitumor effects, nude-mouse-transplanted human tumor. Type of data set: in vivo. To be noted: oral, once a day for 14 days.
Data set [3] has the same test system. Put plainly: Test 4: antitumor effects, therapeutic index of F3 dThd with Compound 2. To be noted: oral, once a day for 14 days. It is filed as in vivo. From the text: Test 4 (Antitumor Effects)
The conditions of data set [4]: antitumor; cited from earlier work.
The subject of a further data set is herpetic keratitis. The note with it: used as an eye drop for herpetic keratitis; cited from earlier work.
In another data set the test system is S-180 cells. The note with it: oral, once a day for 7 days.
A further data set concerns thymidine phosphorylase. The note with it: reported to date; cited from earlier work.
In data set [5] the target is T1, thymidine phosphorylase obtained from human placenta (Homo sapiens, UniProt P19971).
T1 construct: thymidine phosphorylase obtained from human placenta in a highly purified form; from tissue; host or cells: human placenta
T1 sequence (P19971 11-482): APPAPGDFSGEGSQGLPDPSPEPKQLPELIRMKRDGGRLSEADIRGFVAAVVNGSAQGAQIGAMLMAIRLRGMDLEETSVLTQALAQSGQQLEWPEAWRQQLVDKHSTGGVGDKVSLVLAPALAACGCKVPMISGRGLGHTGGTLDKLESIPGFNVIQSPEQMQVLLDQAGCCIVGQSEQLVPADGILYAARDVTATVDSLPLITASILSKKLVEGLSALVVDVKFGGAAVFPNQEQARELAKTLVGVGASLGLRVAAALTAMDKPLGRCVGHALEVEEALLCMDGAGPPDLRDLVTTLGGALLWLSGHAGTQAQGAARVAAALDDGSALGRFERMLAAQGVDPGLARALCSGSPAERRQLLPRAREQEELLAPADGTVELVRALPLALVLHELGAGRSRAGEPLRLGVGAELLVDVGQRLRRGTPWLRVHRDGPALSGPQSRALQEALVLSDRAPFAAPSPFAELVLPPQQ
Description: Test 1: thymidine phosphorylase inhibiting effects (formation of [6-3H]thymine from [6-3H]thymidine). It is filed as biochemical. The note with it: 37° C., 5 minutes, pH 7.4, 3 mM thymidine solution.

As to `O=c1[nH]c(=O)n([C@H]2C[C@H](O)[C@@H](CO)O2)cc1C(F)(F)F` [F3 dThd, 5-Trifluoromethyl-2'-deoxyuridine], the “Therapeutic index BWC-10 /ED50” value in data set [1] (mouse, in vivo, po) is reported as 2.7; in data set [3], 1.7. For the same compound, the BWC-10 is recorded as 73.8 mg/kg in data set [1] (mouse, in vivo, po, 20160 min) and 103 mg/kg in data set [3] (body weight change, in terms of F3 dThd). In addition, the ED50 was 26.9 mg/kg in data set [1] (oral, once a day for 14 days, 12.5-100 mg/kg in terms of F3 dThd) and 60.0 mg/kg in data set [3] (12.5-100 mg/kg in terms of F3 dThd). Moreover, the “Tumor size reduction rate” value is 27% in data set [2] (50 mg/kg in terms of F3 dThd) and 50% in data set [2] (100 mg/kg in terms of F3 dThd). Besides, in data set [4], the in vitro activities result is “strong in vitro activities”. The antiviral activities entry with herpetic keratitis was “has antiviral activities”.
`O=c1[nH]c(=O)n([C@H]2C[C@H](O)[C@@H](CO)O2)cc1F` [FdUrd, 5-Fluoro-2'-deoxyuridine]: in data set [4], the in vitro activities result was “strong in vitro activities”. Further, the results for the “Tumor size reduction rate” value with S-180 cells (5 mg/kg in terms of FdUrd) and in the data set with S-180 cells (10 mg/kg in terms of FdUrd) were 10.5% and 24.4%, respectively.
With `Cc1cn(COCCO)c(=O)[nH]c1=O` [Acyclothymidine], the “inhibitory activities against thymidine phosphorylase” value with thymidine phosphorylase is “not sufficient”. The compound further showed an IC50 in data set [5] above 1 mM.
On to `N#Cc1ccc(O)nc1O` [3-Cyano-2,6-dihydroxypyridine], for which the “inhibitory activities against thymidine phosphorylase” value in the data set on thymidine phosphorylase is given as “not sufficient”.

As usually defined, the ED50 is the midpoint of the dose-response relation. Usually IC50 stands for the concentration that inhibits the measured activity by half.

The values are drawn from US6294535A, “Uracil derivatives and antitumor effect potentiator and antitumor agent containing the same” (Taiho Pharmaceutical Co., Ltd., priority 1995, dated 2001).
